These results are taken from patent US9115012B2, “Method of improving the water quality in aquatic ecosystems” (Kemin Industries, Inc., priority 2010, dated 2015).

As usually defined, the zone of inhibition is the size of the clear area around the sample on an inoculated plate.

The subject of this assay is Vibrio spp. isolated from shrimp pond water. Description: Disk diffusion on Vibrio isolation agar (zone of inhibition). Type of assay: cell-based. Particulars: 10 μl on disk, extract of 20 g powder in 100 ml water, chloramphenicol 25 μg/ml, 37° C. As to the method: In another experiment, the effect of the nut gall extract on the growth of Vibrio spp. isolated from shrimp pond water was tested. The extract was prepared by adding 20 g of nut gall powder into 100 ml of water, soaking for one hour followed by centrifugation. Chloramphenicol (25 μg/ml) was taken as positive control. Vibrio isolation agar was prepared and the agar plates were cooled to room temperature. Sterile disk was placed in the centre of agar plate, after inoculating Vibrio spp. using a sterile cotton swab. 10 μl of extract/antibiotic was added to the disk and incubated at 37° C. in an incubator.
(A growth-free zone around the sample is the usual read-out of agar diffusion tests.)

Compound `O=C(N[C@H](CO)[C@H](O)c1ccc([N+](=O)[O-])cc1)C(Cl)Cl` [Chloramphenicol] showed a zone of inhibition at 25 µg/mL of 13 mm.
